± gives the expanded uncertainty stated by the source.

The nature of this series: excess molar enthalpy (molar enthalpy of mixing); xn = mol fraction of the nth substance listed. To be noted: 473 K, 101.3 kPa, Crystal, Calvet calorimetry.

Take `O=[N+]([O-])[O-].[Tl+]` [thallium nitrate] + O=[N+]([O-])[O-].[Cs+]: the excess molar enthalpy worked out at 0.299 ± 0.0621 kcal/mol (x2 = 0.25), 0.343 ± 0.0717 kcal/mol (x2 = 0.5) and 0.248 ± 0.0526 kcal/mol (x2 = 0.75).

Values taken from the NIST ThermoML archive (doi:10.1016/j.jct.2015.08.019).
